Laboratory results published in patent publication US10251892B2, “Bicyclic heterocycles as FGFR4 inhibitors” (Incyte Corporation, priority 2015, dated 2019).

Molecular target: FGFR3 enzyme (Homo sapiens (Human), UniProt P22607)
Assay: FGFR Enzymatic Assay (peptide phosphorylation, FRET), FGFR3
Format: biochemical
Conditions: IC50 ratio showing FGFR3 selectivity; pre-incubated for 4 hours
Experimental: The inhibitor potency of the exemplified compounds was measured in an enzyme assay that measures peptide phosphorylation using FRET measurements to detect product formation. Inhibitors were serially diluted in DMSO and a volume of 0.5 μL was transferred to the wells of a 384-well plate.
GraphPad prism3 was used to analyze the data.

FGFR3 enzyme, sequence (P22607 23-806): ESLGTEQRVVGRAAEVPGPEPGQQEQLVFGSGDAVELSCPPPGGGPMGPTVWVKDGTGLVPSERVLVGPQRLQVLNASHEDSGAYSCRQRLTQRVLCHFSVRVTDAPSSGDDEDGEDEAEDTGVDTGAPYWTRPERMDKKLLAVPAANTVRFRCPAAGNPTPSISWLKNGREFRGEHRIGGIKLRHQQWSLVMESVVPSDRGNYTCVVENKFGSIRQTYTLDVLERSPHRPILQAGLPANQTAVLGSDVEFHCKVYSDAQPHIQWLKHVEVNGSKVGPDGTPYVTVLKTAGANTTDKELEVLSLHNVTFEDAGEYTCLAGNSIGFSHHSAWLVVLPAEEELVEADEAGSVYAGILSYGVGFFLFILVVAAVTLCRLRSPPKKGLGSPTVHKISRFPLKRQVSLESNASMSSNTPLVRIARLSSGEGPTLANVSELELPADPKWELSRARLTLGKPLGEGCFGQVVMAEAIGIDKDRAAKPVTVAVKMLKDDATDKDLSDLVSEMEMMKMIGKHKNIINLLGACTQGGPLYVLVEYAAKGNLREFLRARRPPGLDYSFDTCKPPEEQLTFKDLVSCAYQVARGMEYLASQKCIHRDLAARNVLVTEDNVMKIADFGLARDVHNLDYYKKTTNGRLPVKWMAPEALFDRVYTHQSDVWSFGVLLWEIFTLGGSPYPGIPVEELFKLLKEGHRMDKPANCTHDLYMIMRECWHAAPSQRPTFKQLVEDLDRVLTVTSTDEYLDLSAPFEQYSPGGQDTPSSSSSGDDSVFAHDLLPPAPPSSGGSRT

SMILES	FGFR1/FGFR3	FGFR4/FGFR3
COc1cc(OC)c(F)c(N2Cc3cnc(-c4ccc(C5(C#N)CCC5)nc4)cc3N(Cc3nnc(C)o3)C2=O)c1F [Example 187, 1-(5-{3-(2,6-difluoro-3,5-dimethoxyphenyl)-1-[(5-methyl-1,3,4-oxadiazol-2-yl)methyl]-2-oxo-1,2,3,4-tetrahydropyrido[4,3-d]pyrimidin-7-yl}pyridin-2-yl)cyclobutanecarbonitrile]	>10	>10
CCN1C(=O)N(c2c(F)c(OC)cc(OC)c2F)Cc2cnc(-c3ccc(C(=O)NC4CC4)nc3)cc21 [Example 176, N-cyclopropyl-5-(3-(2,6-difluoro-3,5-dimethoxyphenyl)-1-ethyl-2-oxo-1,2,3,4-tetrahydropyrido[4,3-d]pyrimidin-7-yl)picolinamide]	>10	>5
CNC(=O)c1ccc(-c2cc3c(cn2)CN(c2c(F)c(OC)cc(OC)c2F)C(=O)C32CC2)cc1 [Example 19, 4-(2′-(2,6-difluoro-3,5-dimethoxyphenyl)-3′-oxo-2′,3′-dihydro-1′H-spiro[cyclopropane-1,4′-[2,7]naphthyridine]-6′-yl)-N-methylbenzamide]	>5	
COc1cc(OC)c(F)c(N2Cc3cnc(-c4cn(C)nc4C)cc3N(c3ccc(F)c(F)c3)C2=O)c1F [Example 102, 3-(2,6-difluoro-3,5-dimethoxyphenyl)-1-(3,4-difluorophenyl)-7-(1,3-dimethyl-1H-pyrazol-4-yl)-3,4-dihydropyrido[4,3-d]pyrimidin-2(1H)-one]	>3	>10
COc1cc(OC)c(F)c(N2Cc3cnc(-c4cnn(CC5CN(S(C)(=O)=O)C5)c4)cc3C3(CC3)C2=O)c1F [Example 166, 2′-(2,6-difluoro-3,5-dimethoxyphenyl)-6′-(1-((1-(methylsulfonyl)azetidin-3-yl)methyl)-1H-pyrazol-4-yl)-1′H-spiro[cyclopropane-1,4′-[2,7]naphthyridin]-3′(2′H)-one]	>3	>3
COc1cc(OC)c(F)c(N2Cc3cnc(-c4cnn(CC5CN(C(C)=O)C5)c4)cc3C3(CC3)C2=O)c1F [Example 167, 6′-(1-((1-acetylazetidin-3-yl)methyl)-1H-pyrazol-4-yl)-2′-(2,6-difluoro-3,5-dimethoxyphenyl)-1′H-spiro[cyclopropane-1,4′-[2,7]naphthyridin]-3′(2′H)-one]	>3	>3
COc1cc(OC)c(F)c(N2Cc3cnc(-c4cn(C)nc4C)cc3N(C3(C#N)CC3)C2=O)c1F [Example 91, 1-(3-(2,6-difluoro-3,5-dimethoxyphenyl)-7-(1,3-dimethyl-1H-pyrazol-4-yl)-2-oxo-3,4-dihydropyrido[4,3-d]pyrimidin-1(2H)-yl)cyclopropanecarbonitrile]	>5	>5
CCn1cnc(-c2cc3c(cn2)CN(c2c(F)c(OC)cc(OC)c2F)C(=O)C32CC2)c1 [Example 53, 2′-(2,6-difluoro-3,5-dimethoxyphenyl)-6′-(1-ethyl-1H-imidazol-4-yl)-1′H-spiro[cyclopropane-1,4′-[2,7]naphthyridin]-3′(2′H)-one]	>5	>5
COc1cc(OC)c(F)c(N2Cc3cnc(-c4cn(C)nc4C)cc3N(C(C)C)C2=O)c1F [Example 90, 3-(2,6-difluoro-3,5-dimethoxyphenyl)-7-(1,3-dimethyl-1H-pyrazol-4-yl)-1-isopropyl-3,4-dihydropyrido[4,3-d]pyrimidin-2(1H)-one]	>5	>5
COc1cc(OC)c(F)c(N2Cc3cnc(-c4cn(CCC5CCNCC5)nc4C)cc3C3(CC3)C2=O)c1F [Example 165, 2′-(2,6-difluoro-3,5-dimethoxyphenyl)-6′-(3-methyl-1-(2-(piperidin-4-yl)ethyl)-1H-pyrazol-4-yl)-1′H-spiro[cyclopropane-1,4′-[2,7]naphthyridin]-3′(2′H)-one]	>3	>3
CNC(=O)c1ccc(-c2cc3c(cn2)CN(c2c(F)c(OC)cc(OC)c2F)C(=O)C32CC2)cn1 [Example 18, 5-(2′-(2,6-difluoro-3,5-dimethoxyphenyl)-3′-oxo-2′,3′-dihydro-1′H-spiro[cyclopropane-1,4′-[2,7]naphthyridine]-6′-yl)-N-methylpicolinamide]	>5	
COc1cc(OC)c(F)c(N2Cc3cnc(-c4cn(CCN5CCOCC5)nc4C)cc3C3(CC3)C2=O)c1F [Example 52, 2′-(2,6-difluoro-3,5-dimethoxyphenyl)-6′-(3-methyl-1-(2-morpholinoethyl)-1H-pyrazol-4-yl)-1′H-spiro[cyclopropane-1,4′-[2,7]naphthyridin]-3′(2′H)-one]	>10	>1
CCn1cc(CN2C(=O)N(c3c(F)c(OC)cc(OC)c3F)Cc3cnc(-c4cn(C)nc4C)cc32)cn1 [Example 39, 3-(2,6-difluoro-3,5-dimethoxyphenyl)-7-(1,3-dimethyl-1H-pyrazol-4-yl)-1-((1-ethyl-1H-pyrazol-4-yl)methyl)-3,4-dihydropyrido[4,3-d]pyrimidin-2(1H)-one]	>10	>10
COc1cc(OC)c(F)c(N2Cc3cnc(-c4ccc(C5(C#N)CCC5)nc4)cc3N(c3cnn(C)c3)C2=O)c1F [Example 188, 1-{5-[3-(2,6-difluoro-3,5-dimethoxyphenyl)-1-(1-methyl-1H-pyrazol-4-yl)-2-oxo-1,2,3,4-tetrahydropyrido[4,3-d]pyrimidin-7-yl]pyridin-2-yl}cyclobutanecarbonitrile]	>5	>5
COc1cc(OC)c(F)c(N2Cc3cnc(-c4cnn(CCCN5CCOCC5)c4)cc3C3(CC3)C2=O)c1F [Example 151, 2′-(2,6-difluoro-3,5-dimethoxyphenyl)-6′-(1-(3-morpholinopropyl)-1H-pyrazol-4-yl)-1′H-spiro[cyclopropane-1,4′-[2,7]naphthyridin]-3′(2′H)-one]	>5	>5

Results, then the compound that gave them:

FGFR1/FGFR3	FGFR4/FGFR3	SMILES
>5	>10	COc1cc(OC)c(F)c(N2Cc3cnc(-c4cn(C)nc4C)cc3N(c3cccc(-c4cnnn4C)c3)C2=O)c1F [Example 89, 3-(2,6-difluoro-3,5-dimethoxyphenyl)-7-(1,3-dimethyl-1H-pyrazol-4-yl)-1-(3-(1-methyl-1H-1,2,3-triazol-5-yl)phenyl)-3,4-dihydropyrido[4,3-d]pyrimidin-2(1H)-one]
>3	>5	COc1cc(OC)c(F)c(N2Cc3cnc(-c4cn(C)nc4C)cc3N(c3ccc4cn[nH]c4c3)C2=O)c1F [Example 133, 3-(2,6-difluoro-3,5-dimethoxyphenyl)-7-(1,3-dimethyl-1H-pyrazol-4-yl)-1-(1H-indazol-6-yl)-3,4-dihydropyrido[4,3-d]pyrimidin-2(1H)-one]
>5	>10	COc1cc(OC)c(F)c(N2Cc3cnc(-c4cn(C)nc4C)cc3N(c3cncc(C)n3)C2=O)c1F [Example 87, 3-(2,6-difluoro-3,5-dimethoxyphenyl)-7-(1,3-dimethyl-1H-pyrazol-4-yl)-1-(6-methylpyrazin-2-yl)-3,4-dihydropyrido[4,3-d]pyrimidin-2(1H)-one]
>5	>5	COc1cc(OC)c(F)c(N2Cc3cnc(-c4cn(C)nc4C)cc3N(c3ccc(F)c(C#N)c3)C2=O)c1F [Example 66, 5-(3-(2,6-difluoro-3,5-dimethoxyphenyl)-7-(1,3-dimethyl-1H-pyrazol-4-yl)-2-oxo-3,4-dihydropyrido[4,3-d]pyrimidin-1(2H)-yl)-2-fluorobenzonitrile]
>5	>10	COc1cc(OC)c(F)c(N2Cc3cnc(-c4cn(C)nc4C)cc3N(Cc3ccncn3)C2=O)c1F [Example 65, 3-(2,6-difluoro-3,5-dimethoxyphenyl)-7-(1,3-dimethyl-1H-pyrazol-4-yl)-1-(pyrimidin-4-ylmethyl)-3,4-dihydropyrido[4,3-d]pyrimidin-2(1H)-one]
>3	>5	COc1cc(OC)c(F)c(N2Cc3cnc(-c4cn(C)nc4C)cc3N(c3ccc4[nH]ncc4c3)C2=O)c1F [Example 134, 3-(2,6-difluoro-3,5-dimethoxyphenyl)-7-(1,3-dimethyl-1H-pyrazol-4-yl)-1-(1H-indazol-5-yl)-3,4-dihydropyrido[4,3-d]pyrimidin-2(1H)-one]
>5	>10	COc1cc(N2C(=O)N(c3c(F)c(OC)cc(OC)c3F)Cc3cnc(-c4cn(C)nc4C)cc32)ccc1C#N [Example 81, 4-(3-(2,6-difluoro-3,5-dimethoxyphenyl)-7-(1,3-dimethyl-1H-pyrazol-4-yl)-2-oxo-3,4-dihydropyrido[4,3-d]pyrimidin-1(2H)-yl)-2-methoxybenzonitrile]
>5	>5	COc1cc(OC)c(F)c(N2Cc3cnc(-c4cn(C)nc4C)cc3N(Cc3ccncc3)C2=O)c1F [Example 69, 3-(2,6-difluoro-3,5-dimethoxyphenyl)-7-(1,3-dimethyl-1H-pyrazol-4-yl)-1-(pyridin-4-ylmethyl)-3,4-dihydropyrido[4,3-d]pyrimidin-2(1H)-one]
>5	>3	COc1cc(OC)c(F)c(N2Cc3cnc(-c4cn(C)nc4C)cc3N(c3ccc(C#N)cn3)C2=O)c1F [Example 79, 6-(3-(2,6-difluoro-3,5-dimethoxyphenyl)-7-(1,3-dimethyl-1H-pyrazol-4-yl)-2-oxo-3,4-dihydropyrido[4,3-d]pyrimidin-1(2H)-yl)nicotinonitrile]
>3	>5	COc1ccc(N2C(=O)N(c3c(F)c(OC)cc(OC)c3F)Cc3cnc(-c4cn(C)nc4C)cc32)cc1 [Example 104, 3-(2,6-difluoro-3,5-dimethoxyphenyl)-7-(1,3-dimethyl-1H-pyrazol-4-yl)-1-(4-methoxyphenyl)-3,4-dihydropyrido[4,3-d]pyrimidin-2(1H)-one]
